Experimental data reported in PubChem BioAssay AID1508612.

Assay: passive permeability, PAMPA, ADME assay (AID 1508612)
Conditions: pH 7.4, 30.0 min, 50.0 µM

| SMILES | Papp [×10⁻⁶ cm/s] |
| --- | --- |
| CCN(CC)C(=O)c1sc2c(c1C)c(=O)n(Cc1ccccc1)c(=O)n2CC(=O)Nc1ccc(OC)cc1 | > 1000 |
| COc1ccc(-n2c(C)c(C(C)=O)c3ccccc32)cc1 | > 1000 |
| CCc1ccc(NC(=O)c2[nH]c(C)c(C(C)=O)c2C)cc1S(=O)(=O)Nc1cccc(C#N)c1 | 178 |
| CC(C)n1cc(-c2ccc(Oc3ccccc3)cc2)c2c(N)ncnc21 | > 1000 |
| COc1ccc2c(ccn2CCC(=O)Nc2ccc3c(c2)C(=O)N2CCC[C@H]2C(=O)N3)c1 | 22.6 |
| CC(NCc1ccc2c(c1)nc(NC(=O)c1ccc(-c3cn[nH]c3)s1)n2CC(C)(C)O)C(C)(C)C (stereo not given) | 820 |
| CCOc1ccc(NC(=O)c2ccc(F)c(S(=O)(=O)N(CC)Cc3ccccc3)c2)cc1 | < 1 |
| COc1ccc(CCNC(=O)c2cc3c(=O)n4ccccc4nc3n(CCCN3CCOCC3)c2=N)cc1 | 394 |
| Cc1ccc(S(=O)(=O)Nc2cncc(C(=O)Nc3nc(-c4ccccc4)cs3)c2)cc1 | 71.2 |
| CCOc1ccc(Nc2nc(C)c(NC(=O)c3ccc(C)cc3)c(Nc3ccc(OCC)cc3)n2)cc1 | 211 |
| c1ccc2c(N3CCOCC3)nc(-c3ccncc3)nc2c1 | > 1000 |
| Cc1ccc(-n2c(C)cc(-c3nnc4n3CCCCC4)c2C)cc1 | > 1000 |
| COc1cc(C2CC(=O)Nc3cc4c(cc32)OCCO4)cc(Br)c1OC (stereo not given) | 376 |
| Cc1cc(C)nc(NC(=S)N2CCN(c3cccc(C(F)(F)F)c3)CC2)c1 | 593 |
| COc1cc(OC)cc(-c2csc(N3CCC(C(N)=O)CC3)n2)c1 | > 1000 |
| COc1ccc2c(c1)N(C[C@H](C)CN(C)C)c1ccccc1S2 | 902 |
| O=C(Cc1cccs1)NCc1nnc2ccc(-c3ccccc3)nn12 | 226 |
| CC(C)c1ccc(CC(=O)N2CCCc3ncc(C(=O)Nc4cccnc4)cc32)cc1 | 734 |
| CCOC(=O)c1c(C)c(-c2ccccc2)n(CC(=O)NCc2ccccc2)c1C | > 1000 |
| O=C(NC1CC1)c1ccc(CSCc2ccccc2Cl)o1 | 758 |
| COc1cccc(CNc2ccc(S(=O)(=O)Nc3ccccn3)cc2)c1O | 586 |
| COc1ccc(Nc2nnc(-c3ccc(C)c(S(=O)(=O)NCc4nc5ccccc5[nH]4)c3)c3ccccc23)cc1 | 11.9 |
| CCn1cc(CNC(=O)c2cc(-c3ccc(C)cc3)nc3ccc(Br)cc23)c(C)n1 | 5.55 |
| CCOc1ccc(NC(=O)c2cccc(-n3cccc3)c2)cc1S(=O)(=O)N1CCOCC1 | 80.4 |
| COc1ccc(O)c(CNc2ccc(S(=O)(=O)Nc3nccs3)cc2)c1 | 3.74 |
| Cc1nn2c(c1-c1ccccc1-c1ccccc1)N(CCC(C)C)CCC2 | 532 |
| O=C(O)c1ccc(-c2c[nH]c3ncc(-c4ccccc4)cc23)cc1C1CCCC1 | 400 |

| SMILES | Papp [×10⁻⁶ cm/s] |
| --- | --- |
| CCc1ccc(NC(=O)c2cc3ncccn3n2)cc1 | 525 |
| C[C@@H](c1ccc2nccn2c1)n1nnc2ncc(-c3cnn(C)c3)nc21 | 40.7 |
| CCCc1ccc(-c2csc(NC(=O)c3ccncc3NS(=O)(=O)c3ccc(C)cc3)n2)cc1 | 755 |
| c1ccc(-c2ccc(CNc3nc(-c4ccccn4)nnc3-c3ccccc3)cc2)cc1 | > 1000 |
| Cc1cccc(C)c1NC(=O)c1nc(SC(C)C)ncc1Cl | > 1000 |
| COc1ccc(-c2cc(-c3cccc(NC(C)=O)c3)cn3cncc23)cn1 | 39 |
| Cc1cc(N)c2cc(NC(=O)Nc3ccc4nc(C)cc(N)c4c3)ccc2n1 | < 1 |
| CC(=O)Nc1ccc(C(=O)Nc2ccc3c(c2)N(C2CCCC2)C(=O)c2ccccc2S3)cc1 | 138 |
| COc1cccc(CNc2ccc(S(=O)(=O)Nc3ncc(-c4ccccc4)s3)cc2)c1O | 36.6 |
| COc1ccc(OC)c(-c2nc3c(C#N)c[nH]n3c2NC2CCCCC2)c1 | > 1000 |
| Cc1ccc(-n2nc3c(N4CCCC(C(=O)NCc5ccccc5C)C4)nnc(C)c3c2C)cc1 (stereo not given) | 173 |
| Cc1ccc(S(=O)(=O)Nc2ccccc2C(=O)Nc2nc(-c3ccccc3)cs2)cc1 | > 1000 |
| COc1cccc(CNc2ccc(S(=O)(=O)Nc3cc(C)on3)cc2)c1O | 62.9 |
| CCCCOc1ccc(CNC(=O)c2cc3n(n2)CCCN(Cc2ccc(C)cc2)C3=O)cc1 | < 1 |
| Cc1ccc(OCCn2c(CCNC(=O)N3CCCCC3)nc3ccccc32)cc1 | > 1000 |
| CC(C)c1ccccc1-c1ncc(F)c(NC(C)(C)c2ccc(-n3ccnn3)cc2)n1 | 672 |
| O=C(Nc1ccc(C(=O)N2CCCC2)cc1)c1ccccc1F | 139 |
| CCCNC(=O)c1ccc2c(c1)N=C(C)c1c(C)ccc(C)c1S2 | > 1000 |
| Cc1ccc(-n2ncc3c(Nc4cccc(C(=O)O)c4)ncnc32)cc1 | 13.2 |
| C[C@@H]1Cc2c([nH]c3cc(Cl)c(F)cc23)[C@]2(N1)C(=O)Nc1ccc(Cl)cc12 | 763 |
| O=C(Nc1ncccc1O)c1ccc(S(=O)(=O)Nc2ccccc2)cc1 | 344 |
| CCc1oc2ccccc2c1C(=O)c1cc(Br)c(O)c(Br)c1 | 62 |
| O=C(O)c1cnc(-c2ccc(F)cc2)nc1-c1ccncc1 | < 1 |
| O=C(Nc1nc(-c2ccccn2)cs1)c1cccc(S(=O)(=O)N2CCOCC2)c1 | 657 |
| CCOc1ccc(CCNC(=O)c2ccnn2Cc2ccccn2)cc1OCC | 177 |
| Cc1cc(C)nc(N2CCCC(C(=O)NCCc3ccc(F)cc3)C2)n1 (stereo not given) | 62.2 |
| COc1ccc(OC)c(N2C(=O)C(Cl)=C(N3CCCCC3)C2=O)c1 | > 1000 |

| SMILES | Papp [×10⁻⁶ cm/s] |
| --- | --- |
| CCn1ncc(NC(=O)Cn2ncc3cc(-c4cccc(OC)c4)ccc32)n1 | > 1000 |
| Cc1cc(C)nc(NC(=S)N2CCN(c3ccc(Cl)cc3[N+](=O)[O-])CC2)c1 | > 1000 |
| Fc1ccc(Cc2nc3nccc(-c4cccs4)n3n2)cc1 | > 1000 |
| Cc1noc(C)c1-c1csc(N2CCC(C(N)=O)CC2)n1 | 58.9 |
| COc1ccc(NC(=O)c2c(C)c(C(C)=O)c(C)n2C)cc1S(=O)(=O)Nc1ccc(Br)cc1 | < 1 |
| O=C(CSc1ccccc1)Nc1nnc(COc2ccc(Cl)cc2)s1 | 498 |
| CCOC(=O)Nc1ccc(NCc2ccc(F)cc2)nc1N | 68.3 |
| COc1ccccc1C(=O)Nc1nnc(SCc2cc(=O)c3ccccc3[nH]2)s1 | 287 |
| Fc1ccc(-c2ccc(Nc3nc(-c4ccncc4)nc4ccccc34)cc2F)cc1 | 93.6 |
| COc1ccc(OC)c(-n2c3c(cc(-c4nc(-c5ccc(Cl)cc5)cs4)c2=O)C(=O)CC(C)(C)C3)c1 | 216 |
| CCCCn1cnc2cc(NCc3ccc(OCC)cc3)ccc21 | > 1000 |
| CCOC(=O)c1ccc(-n2c(C)cc(-c3nnc4n3CCCCC4)c2C)cc1 | 353 |
| CC(C)c1ccc2oc3nc(N)c(C(=O)O)cc3c(=O)c2c1 | 9.71 |
| COc1cccc(CNc2ccc(S(=O)(=O)Nc3cccc4ccncc34)cc2)c1O | > 1000 |
| CC(=O)Nc1cccc(-c2nc(-c3c(C)noc3C)cc3c2cc(-c2ccccc2)n3C)c1 | 455 |
| FC(F)(F)c1cc(-c2ccc(CNc3nc(-c4ccccc4C(F)(F)F)nc4ccsc34)cc2)ccn1 | 455 |
| CCOC(=O)CCNc1cc(N2CCc3ccccc3CC2)nc(-c2ccccn2)n1 | > 1000 |
| Cc1cnc(-c2ccccc2C2COC2)nc1NCc1ccc(-n2ccnn2)cc1 | < 1 |
| Cc1ccc(CCNC(=O)C2CCCN(C(=O)c3cc4sccc4n3C)C2)cc1 (stereo not given) | > 1000 |
| O=C1c2ccccc2C2=Nc3ccccc3SC(c3ccccc3F)C12 (stereo not given) | < 1 |
| O=C(NCc1ccccc1)c1nc(S(=O)(=O)Cc2ccc(F)cc2)ncc1Cl | 350 |
| COC(=O)C1=C(C)NC(C)=C(C(=O)O[C@@H]2CCCN(Cc3ccccc3)C2)[C@@H]1c1cccc([N+](=O)[O-])c1 | 950 |
| CCc1cccc(CC)c1-n1c(C=C(C)C)c(C(=O)N2CCNCC2)cc(-c2nc(-c3ccc(C(F)(F)F)cc3)cs2)c1=O | 33.8 |
| Fc1cc(Nc2nc(-c3ccncc3)nc3ccccc23)ccc1-c1cc(F)c(F)c(F)c1 | 21.1 |
| NCC(=O)Nc1cncc(-c2nn3c(=O)cc(N4CCNCC4)nc3s2)c1 | < 1 |
| O=C(NCCN1CCOCC1)C1CC(=O)N(c2n[nH]c3cc(Br)ccc23)C1 (stereo not given) | 1.8 |
| CC(=O)c1c(C)[nH]c(C(=O)Nc2cccc(S(=O)(=O)Nc3ccc(Br)cc3)c2)c1C | 288 |

| SMILES | Papp [×10⁻⁶ cm/s] |
| --- | --- |
| O=C(NCCCc1ccccc1)c1cccc(-c2cc(O)c3ncccc3c2)c1 | < 1 |
| CCOC(=O)N1CCN(Cc2nc3cc(NC(=O)c4ccc(OC)cc4)ccc3n2C(C)C)CC1 | > 1000 |
| COC(=O)Nc1nc2ccc(SC(C)C)cc2[nH]1 | 433 |
| COc1ccc(CN2C(=O)[C@@H]3C[C@@H](CN3Cc3cccs3)Oc3ccccc32)cc1 | 900 |
| O=C(NC(c1ccccc1)c1cc(Cl)c2cccnc2c1O)c1cccnc1 (stereo not given) | 51.6 |
| Cn1cc(-c2nc(Nc3ccc(F)c(F)c3)c3ccccc3n2)cn1 | 315 |
| CN1CCN(C(=O)Cc2c[nH]c3ncc(-c4ccccc4Oc4ccccc4)cc23)CC1 | > 1000 |
| Cc1ccc2c(c1)/C(=C\c1cc(Cl)c(O)c(Cl)c1)C(=O)N2 | 97.5 |
| CN1CCN(C2=Nc3cc(Cl)ccc3Nc3ccccc32)CC1 | > 1000 |
| Nc1nc2c(s1)C(c1ccc(F)c(F)c1)CC(=O)N2 (stereo not given) | 265 |
| Cc1ccc(Nc2nc(C)c(NC(=O)c3ccc(C)cc3)c(Nc3ccc(C)cc3)n2)cc1 | 291 |
| Cc1ccc(S(=O)(=O)Nc2cnccc2C(=O)Nc2nc(-c3cccnc3)cs2)cc1 | 104 |
| O=C(NCCO)c1cccc(-c2cc(Nc3ccc(OC(F)(F)F)cc3)ncn2)c1 | 472 |
| COC(=O)[C@@]12OC[C@]34[C@H]([C@@H](O)[C@@H]1O)[C@@]1(C)CC(=O)C(O)=C(C)[C@@H]1C[C@H]3OC(=O)[C@H](OC(=O)/C=C(\C)C(C)C)[C@@H]24 | 120 |
| Cn1cnc(-c2nccc3c(=O)[nH]c(OCCCC(F)(F)F)nc23)c1 | 109 |
| FC(F)(F)c1cccc(N2CCN(C(=S)Nc3ccccn3)CC2)c1 | > 1000 |
| O=C1C(SCCO)=C(SCCO)C(=O)c2ccccc21 | 108 |
| Cc1ccc(N2CCC(CNc3nc(-c4ccccc4C(C)C)ncc3F)CC2)cn1 | > 1000 |
| Fc1cc(Nc2nc(-c3ccncc3)nc3ccccc23)ccc1-c1ccnc(C(F)(F)F)c1 | 11.6 |
| COC(=O)C1=C(C)NC(=O)CC1C(=O)Nc1ccc(Cl)cc1 (stereo not given) | 126 |
| COc1ccnc(NC(=S)N2CCN(c3ncc(C(F)(F)F)cc3Cl)CC2)c1 | > 1000 |
| NC(=O)C1CCN(c2nc(-c3ccc(N)cc3)cs2)CC1 | 87.1 |
| Cc1nn(Cc2ccc(Cl)cc2)c(C)c1NC(=O)c1cc(-c2ccc3c(c2)OCO3)on1 | 836 |
| CN1CCN(Cc2ccc(-c3ccc(C(C)(C)C#N)cc3)nc2)CC1 | > 1000 |
